One series deals with HosA (Escherichia coli, UniProt P69782). The experiment in a line: EMSA, dissociation of operator dsDNA. Format: binding. The conditions noted are these: pH 7.5, room temperature; allosteric effector. In general terms: A gel shift assay detects complexes by their altered migration in electrophoresis.
A further series addresses CBD-HosA (Escherichia coli, UniProt P69782). The experiment in a line: EMSA, dissociation of operator dsDNA. Conditions: 1.8 mM p-HBA in the specificity test; pH 7.5, room temperature; allosteric effector; also Cas12a read-out with immobilised protein. The format is binding.
In series [1] the target is CBD-TetR (Escherichia coli, UniProt P04483). The conditions noted are these: pH 7.5, room temperature; allosteric effector.
CBD-TetR (Escherichia coli, UniProt P04483), sequence (P04483 whole entry): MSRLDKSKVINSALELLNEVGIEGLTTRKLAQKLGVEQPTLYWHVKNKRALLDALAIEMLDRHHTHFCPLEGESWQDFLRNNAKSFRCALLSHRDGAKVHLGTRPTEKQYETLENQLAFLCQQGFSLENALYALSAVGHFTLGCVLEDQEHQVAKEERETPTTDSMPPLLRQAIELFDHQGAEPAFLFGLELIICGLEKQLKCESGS
Series [2] has as its target T1, CBD-HucR (Deinococcus radiodurans, UniProt Q9RV71).
T1 construct: gene DR_1159
T1 sequence (Q9RV71 1-181): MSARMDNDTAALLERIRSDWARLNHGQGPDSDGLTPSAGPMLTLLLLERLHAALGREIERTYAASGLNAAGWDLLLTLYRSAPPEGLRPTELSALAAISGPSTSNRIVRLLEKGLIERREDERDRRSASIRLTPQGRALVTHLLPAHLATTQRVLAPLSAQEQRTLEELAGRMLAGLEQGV
Nature of the series: EMSA, dissociation of operator dsDNA. Format: binding. Conditions: 0.05-500 uM uric acid; pH 7.5, room temperature; allosteric effector; also Cas12a read-out with immobilised protein.

In series [3] the target is CBD-TetR (UniProt P04483 1-207). The experiment in a line: EMSA; 25-200 nM protein, 40 nM DNA; EMSA: 10 mM Tris-HCl pH 7.5, 100 mM KCl, 1 mM EDTA, 0.1 mM DTT, 5% glycerol, 0.01 mg/mL BSA, room temperature 30 min; 1.5% agarose gel in Tris-borate-EDTA at 4. The conditions noted are these: protein: recombinant; tags: CBD fused via (SGGGG)4 linker; His tag; chain copies: 2; blunt.
CBD-TetR (UniProt P04483 1-207), sequence (P04483 whole entry, the tested form may be a part): as the sequence (P04483 whole entry) above

In series [4] the target is T2, CBD-HucR (UniProt Q9RV71 1-181).
T2 sequence: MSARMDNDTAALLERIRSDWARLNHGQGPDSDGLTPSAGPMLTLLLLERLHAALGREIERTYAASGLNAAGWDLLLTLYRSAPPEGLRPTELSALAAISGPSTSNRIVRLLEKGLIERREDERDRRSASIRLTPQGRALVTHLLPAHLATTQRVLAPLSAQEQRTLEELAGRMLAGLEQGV
Described as above. Conditions: protein: recombinant; tags: CBD fused via (SGGGG)4 linker; His tag; chain copies: 2; blunt.

CBD-HosA, sequence (P69782 whole entry): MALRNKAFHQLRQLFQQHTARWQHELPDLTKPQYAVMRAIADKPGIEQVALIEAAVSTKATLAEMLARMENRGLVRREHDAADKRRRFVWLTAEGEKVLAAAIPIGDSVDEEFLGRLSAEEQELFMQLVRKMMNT
HosA, sequence (P69782 whole entry): as above

`O=C(O)c1ccc(O)cc1` [p-HBA, p-hydroxybenzoic acid]: the “EMSA, dissociation of operator dsDNA” value was “there were no significant differences between HosA and CBD-HosA on gel-shift images” on HosA; “p-HBA induced the almost complete dissociation of dsDNA from the CBD–HosA–dsDNA complex” on CBD-HosA.
With `CN(C)[C@@H]1C(=O)C(C(N)=O)=C(O)[C@@]2(O)C(=O)C3=C(O)c4c(O)cccc4[C@@](C)(O)[C@H]3C[C@@H]12` [tetracycline], on CBD-TetR [1], the “EMSA, dissociation of operator dsDNA” value is “Both CBD-TetR and CBD-HosA show perfect dsDNA-binding and effector-induced allosteric activities”.
As to `O=c1[nH]c(=O)c2[nH]c(=O)[nH]c2[nH]1` [uric acid], on CBD-HucR [2], the “EMSA, dissociation of operator dsDNA” value is “increasing amounts of dsDNA dissociated from the CBD–HucR–dsDNA complex”.

B1: dsDNA(TetR) (dsDNA)
DNA 1: TGAGCCATGTATCCAGGTCATTTGTCCCTATCAGTGATAGAGAAGCTCTGACAGTTCCA
DNA 2: TGGAACTGTCAGAGCTTCTCTATCACTGATAGGGACAAATGACCTGGATACATGGCTCA
With B1, in the series with CBD-TetR [3], the binding result is “binds”.

B2: dsDNA(HucR) (dsDNA)
DNA 1: TACTGAGCCATGTATCCAGGTCATTGTACTTAGATGTCTACCTAAGCTCTGACAGTTCCA
DNA 2: TGGAACTGTCAGAGCTTAGGTAGACATCTAAGTACAATGACCTGGATACATGGCTCAGTA
In the case of B2, the binding result with CBD-HucR [4] is “binds”.
